Residues, ends and D or L forms follow the SMILES beside them.
Target: T1, Tyrosine-protein phosphatase non-receptor type 1 (Homo sapiens) (UniProt P18031)
T1 sequence (whole entry): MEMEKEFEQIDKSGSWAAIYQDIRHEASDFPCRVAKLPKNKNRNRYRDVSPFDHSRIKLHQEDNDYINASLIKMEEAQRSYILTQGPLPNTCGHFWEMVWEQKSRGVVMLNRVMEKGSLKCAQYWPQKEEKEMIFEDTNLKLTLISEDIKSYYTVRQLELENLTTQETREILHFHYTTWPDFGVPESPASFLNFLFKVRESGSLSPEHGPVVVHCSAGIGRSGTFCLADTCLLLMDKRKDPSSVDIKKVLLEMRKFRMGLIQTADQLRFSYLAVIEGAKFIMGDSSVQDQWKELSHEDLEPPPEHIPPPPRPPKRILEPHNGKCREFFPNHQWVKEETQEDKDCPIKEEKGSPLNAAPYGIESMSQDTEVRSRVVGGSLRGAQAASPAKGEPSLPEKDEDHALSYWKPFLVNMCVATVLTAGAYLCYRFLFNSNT
Assay: Inhibition of recombinant human N-terminal poly histidine-tagged PTP1B (Glu2 to Asn321 residues) expressed in Escherichia coli at 40 umol/L using pNPP as substrate measured for 4 mins relative to control

| inhibition [%] | Compound |
| --- | --- |
| 4.25 | CC[C@H](C)[C@H](NC(=O)COCCOCCOCCOCCOC)C(=O)N[C@@H](C)C(=O)N[C@@H](CCC(N)=O)C(=O)N[C@@H](CCC(=O)O)C(=O)N[C@@H](CC(C)C)C(=O)N[C@@H](CCCNC(=N)N)C(=O)N[C@@H](CCCNC(=N)N)C(=O)N[C@H](C(=O)NCC(=O)N[C@@H](CC(=O)O)C(=O)N[C@@H](CCC(=O)O)C(=O)N[C@@H](Cc1ccccc1)C(N)=O)[C@@H](C)CC (HELM PEPTIDE1{[COCCOCCOCCOCCOCC(=O)[*:2]].I.A.Q.E.L.R.R.I.G.D.E.F.[am]}$$$$V2.0) |
| 2.1 | Ac-IAQELRRIGDEF-NH2 |

— ChEMBL document CHEMBL4371021, “BH3 mimetics derived from Bim-BH3 domain core region show PTP1B inhibitory activity” (Bioorg Med Chem Lett, 2019)
